Earlier results on one compound are cited in patent US20110151028A1, “Topical vaginal preparation” (priority 2009, published 2011).

The structures appear in SMILES notation.

For this data set the following is noted: carrier: standard hydrophilic transdermal carrier, propylene glycol.

Turning to `CC[C@H]1OC(=O)[C@H](C)[C@@H](O[C@H]2C[C@@](C)(OC)[C@@H](O)[C@H](C)O2)[C@H](C)[C@@H](O[C@@H]2O[C@H](C)C[C@H](N(C)C)[C@H]2O)[C@](C)(O)C[C@@H](C)C(=O)[C@H](C)[C@@H](O)[C@]1(C)O` [erythromycin], the “systemic absorption of transdermally delivered erythromycin” value was “rapid systemic absorption”.
